From patent US10597388B2, “Pyridazinone herbicides” (FMC CORPORATION, priority 2014, dated 2020)

What was measured:
Type in all cases: in vivo
[1] = system: waterhemp_RES2 (ALS & HPPD resistant common waterhemp, Amaranthus rudis); assay: Test E greenhouse herbicide test, postemergence
Method: (§1) At the same time, plants from these crop and weed species and also waterhemp_RES1, (ALS & Triazine resistant common waterhemp, Amaranthus rudis), and waterhemp_RES2, (ALS & HPPD resistant common waterhemp, Amaranthus rudis) were planted in pots containing Redi-Earth® planting medium (Scotts Company, 14111 Scottslawn Road, Marysville, Ohio 43041) comprising spaghnum peat moss, vermiculite, wetting agent and starter nutrients were treated with postemergence applications of test chemicals formulated in the same manner. Plants ranged in height from 2 to 18 cm for postemergence treatments (1- to 4-leaf stage). Treated plants and controls were maintained in a greenhouse for 14 to 21 d, after which time all species were compared to controls and visually evaluated. Plant response ratings, summarized in Table E, are based on a scale of 0 to 100 where 0 is no effect and 100 is complete control. A dash (-) response means no test result.

[2] = system: waterhemp_RES1 (ALS & Triazine resistant common waterhemp, Amaranthus rudis); assay: Test E greenhouse herbicide test, postemergence
Method: as §1

[3] = system: mustard, wild (wild mustard, Sinapis arvensis); assay: Test D controlled growth environment herbicide test, pre- and postemergence
Source text: (§2) Seeds of plant species selected from bluegrass (annual bluegrass, Poa annua), blackgrass (Alopecurus myosuroides), Canada thistle (Cirsium arvense), canarygrass (Phalaris minor), chickweed (common chickweed, Stellaria media), geranium, cutleaf (cutleaf geranium, Geranium dissectum), galium (catchweed bedstraw, Galium aparine), bromegrass, downy (downy bromegrass, Bromus tectorum), field poppy (Papaver rhoeas), field violet (Viola arvensis), foxtail, green (green foxtail, Setaria viridis), deadnettle (henbit deadnettle, Lamium amplexicaule), ryegrass, Italian (Italian ryegrass, Lolium multiflorum), kochia (Kochia scoparia), lambsquarters (Chenopodium album), oilseed rape (Brassica napus), pigweed (Amaranthus retroflexus), chamomile (scentless chamomile, Matricaria inodora), Russian thistle (Salsola kali), speedwell (bird's-eye speedwell, Veronica persica), barley, spring (spring barley, Hordeum vulgare), wheat, spring (spring wheat, Triticum aestivum), buckwheat, wild (wild buckwheat, Polygonum convolvulus), mustard, wild (wild mustard, Sinapis arvensis), oat, wild (wild oat, Avena fatua), radish, wild (wild radish, Raphanus raphanistrum), windgrass (Apera spica-venti), barley, winter (winter barley, Hordeum vulgare), and wheat, winter (winter wheat, Triticum aestivum) were planted into a silt loam soil and treated preemergence with test chemicals formulated in a non-phytotoxic solvent mixture which included a surfactant.
(§3) At the same time, these species were planted in pots containing Redi-Earth® planting medium (Scotts Company, 14111 Scottslawn Road, Marysville, Ohio 43041) comprising spaghnum peat moss, vermiculite, wetting agent and starter nutrients and treated with postemergence applications of the test chemicals formulated in the same manner. Plants ranged in height from 2 to 18 cm (1- to 4-leaf stage). Treated plants and controls were maintained in a controlled growth environment for 14 to 21 d after which time all species were compared to controls and visually evaluated. Plant response ratings, summarized in Table D, are based on a scale of 0 to 100 where 0 is no effect and 100 is complete control. A dash (-) response means no test result.

[4] = system: windgrass (Apera spica-venti); assay: as above
Source text: as §2, §3

[5] = system: foxtail, green (green foxtail, Setaria viridis); assay: as above
Source text: as §2, §3

[6] = system: blackgrass (Alopecurus myosuroides); assay: as above
Source text: as §2, §3

[7] = system: lambsquarters (Chenopodium album); assay: as above
Source text: as §2, §3

[8] = system: radish, wild (wild radish, Raphanus raphanistrum); assay: as above
Source text: as §2, §3

[9] = system: chamomile (scentless chamomile, Matricaria inodora); assay: as above
Source text: as §2, §3

[10] = system: barley, winter (winter barley, Hordeum vulgare); assay: as above
Source text: as §2, §3

[11] = system: field poppy (Papaver rhoeas); assay: as above
Source text: as §2, §3

[12] = system: deadnettle (henbit deadnettle, Lamium amplexicaule); assay: as above
Source text: as §2, §3

[13] = 16 g ai/ha, visual, scale 0 no effect to 100 complete control
[14] = 31 g ai/ha, visual, scale 0 no effect to 100 complete control
[15] = 125 g ai/ha, scale 0 to 100 (0 no effect, 100 complete control)
[16] = Postemergence, 31 g ai/ha, scale 0 to 100 (0 no effect, 100 complete control)
[17] = Postemergence, 125 g ai/ha, visual rating on scale 0 (no effect) to 100 (complete control), 14 to 21 d
[18] = Postemergence, 250 g ai/ha, scale 0 to 100 (0 no effect, 100 complete control)
[19] = Preemergence, 62 g ai/ha, scale 0 to 100 (0 no effect, 100 complete control)
[20] = Preemergence, 125 g ai/ha, scale 0 to 100 (0 no effect, 100 complete control)
[21] = Preemergence, 250 g ai/ha, scale 0 to 100, 0 no effect, 100 complete control
[22] = postemergence, 62 g ai/ha, scale 0 to 100, 0 no effect, 100 complete control

CC(=O)Oc1c(C)nn(C)c(=O)c1-c1c(C)cc(C)c2ccccc12 [Compound 99]
Plant response rating, Waterhemp_RES2 [1, 13]: 50 | Plant response rating, Waterhemp_RES2 [1, 14]: 50 | Plant response rating, Waterhemp_RES2 [1, 15]: 60 | Plant response rating, Waterhemp_RES1 [2, 13]: 50 | Plant response rating, Waterhemp_RES1 [2, 14]: 50 | Plant response rating, Waterhemp_RES1 [2, 15]: 75

COC(=O)Oc1c(C)nn(C)c(=O)c1-c1c(C)sc2ccc(C)cc12 [Compound 80]
Mustard, Wild plant response rating [3, 16]: 35 | Plant response rating, Mustard, Wild [3, 17]: 70 | Plant response rating, Mustard, Wild [3, 18]: 100 | Plant response rating (scale of 0 to 100), Mustard, Wild ([3]; Preemergence, 31 g ai/ha): 0 | Plant response rating, Mustard, Wild [3, 19]: 0 | Plant response rating, Mustard, Wild [3, 20]: 0 | Plant response rating, Mustard, Wild [3, 21]: 0 | Plant response rating, Mustard, Wild [3, 22]: 50 | Windgrass plant response rating [4, 16]: 75 | Plant response rating, Windgrass [4, 17]: 95 | Plant response rating, Windgrass [4, 18]: 98 | Plant response rating (scale of 0 to 100), Windgrass ([4]; Preemergence, 31 g ai/ha): 75 | Plant response rating, Windgrass [4, 19]: 90 | Plant response rating, Windgrass [4, 20]: 95 | Plant response rating, Windgrass [4, 21]: 98 | Plant response rating, Windgrass [4, 22]: 90 | Foxtail, Green plant response rating [5, 16]: 70 | Plant response rating, Foxtail, Green [5, 17]: 90 | Plant response rating, Foxtail, Green [5, 18]: 95 | Plant response rating (scale of 0 to 100), Foxtail, Green ([5]; Preemergence, 31 g ai/ha): 20 | Plant response rating, Foxtail, Green [5, 19]: 80 | Plant response rating, Foxtail, Green [5, 20]: 100 | Plant response rating, Foxtail, Green [5, 21]: 100 | Plant response rating, Foxtail, Green [5, 22]: 90 | Blackgrass plant response rating [6, 16]: 75 | Plant response rating, Blackgrass [6, 17]: 90 | Plant response rating, Blackgrass [6, 18]: 90 | Plant response rating (scale of 0 to 100), Blackgrass ([6]; Preemergence, 31 g ai/ha): 70 | Plant response rating, Blackgrass [6, 19]: 75 | Plant response rating, Blackgrass [6, 20]: 80 | Plant response rating, Blackgrass [6, 21]: 85 | Plant response rating, Blackgrass [6, 22]: 80 | Lambsquarters plant response rating [7, 16]: 95 | Plant response rating, Lambsquarters [7, 17]: 100 | Plant response rating, Lambsquarters [7, 18]: 100 | Plant response rating (scale of 0 to 100), Lambsquarters ([7]; Preemergence, 31 g ai/ha): 100 | Plant response rating, Lambsquarters [7, 19]: 100 | Plant response rating, Lambsquarters [7, 20]: 100 | Plant response rating, Lambsquarters [7, 21]: 100 | Plant response rating, Lambsquarters [7, 22]: 100 | Radish, Wild plant response rating [8, 16]: 10 | Plant response rating, Radish, Wild [8, 17]: 50 | Plant response rating, Radish, Wild [8, 18]: 65 | Plant response rating (scale of 0 to 100), Radish, Wild ([8]; Preemergence, 31 g ai/ha): 20 | Plant response rating, Radish, Wild [8, 19]: 75 | Plant response rating, Radish, Wild [8, 20]: 100 | Plant response rating, Radish, Wild [8, 21]: 100 | Plant response rating, Radish, Wild [8, 22]: 50 | Chamomile plant response rating [9, 16]: 80 | Plant response rating, Chamomile [9, 17]: 100 | Plant response rating, Chamomile [9, 18]: 100 | Plant response rating (scale of 0 to 100), Chamomile ([9]; Preemergence, 31 g ai/ha): 95 | Plant response rating, Chamomile [9, 19]: 100 | Plant response rating, Chamomile [9, 20]: 100 | Plant response rating, Chamomile [9, 21]: 100 | Plant response rating, Chamomile [9, 22]: 95 | Barley, Winter plant response rating [10, 16]: 0 | Plant response rating, Barley, Winter [10, 17]: 5 | Plant response rating, Barley, Winter [10, 18]: 15 | Plant response rating (scale of 0 to 100), Barley, Winter ([10]; Preemergence, 31 g ai/ha): 0 | Plant response rating, Barley, Winter [10, 19]: 0 | Plant response rating, Barley, Winter [10, 20]: 15 | Plant response rating, Barley, Winter [10, 21]: 45 | Plant response rating, Barley, Winter [10, 22]: 0 | Field Poppy plant response rating [11, 16]: 60 | Plant response rating, Field Poppy [11, 17]: 100 | Plant response rating, Field Poppy [11, 18]: 100 | Plant response rating (scale of 0 to 100), Field Poppy ([11]; Preemergence, 31 g ai/ha): 90 | Plant response rating, Field Poppy [11, 19]: 100 | Plant response rating, Field Poppy [11, 20]: 100 | Plant response rating, Field Poppy [11, 21]: 100 | Plant response rating, Field Poppy [11, 22]: 80 | Deadnettle plant response rating [12, 16]: 35 | Plant response rating, Deadnettle [12, 17]: 35 | Plant response rating, Deadnettle [12, 18]: 50 | Plant response rating (scale of 0 to 100), Deadnettle ([12]; Preemergence, 31 g ai/ha): 55 | Plant response rating, Deadnettle [12, 19]: 65 | Plant response rating, Deadnettle [12, 20]: 70 | Plant response rating, Deadnettle [12, 21]: 75 | Plant response rating, Deadnettle [12, 22]: 25
